Experimental findings from article PMC6838683, “Discovery of Human Signaling Systems: Pairing Peptides to G Protein-Coupled Receptors” (Cell, 2019) are described below.

Positions of bridges follow the written chain, without caps; N, C: chain ends. Residues, ends and D or L forms follow the SMILES beside them. No end group written: not given here.

Assay [1] deals with T1, GPR139 (Homo sapiens, UniProt Q6DWJ6).
T1 construct: hIL-2Ra signal peptide (N); expressed in transfected cells
T1 sequence (Q6DWJ6 2-353 limits assumed): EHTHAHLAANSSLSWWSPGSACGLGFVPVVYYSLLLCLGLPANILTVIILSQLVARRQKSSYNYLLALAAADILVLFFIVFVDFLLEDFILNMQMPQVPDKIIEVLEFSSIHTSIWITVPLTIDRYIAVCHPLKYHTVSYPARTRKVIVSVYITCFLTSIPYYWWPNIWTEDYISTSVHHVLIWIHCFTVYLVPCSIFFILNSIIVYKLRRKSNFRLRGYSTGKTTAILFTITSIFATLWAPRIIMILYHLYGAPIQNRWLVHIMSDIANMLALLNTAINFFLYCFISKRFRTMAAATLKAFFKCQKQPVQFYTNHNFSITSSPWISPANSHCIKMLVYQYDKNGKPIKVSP
Put plainly: Repeat of proposed literature pairing (mass redistribution and/or internalization). In kind it is cell-based. The settings on record: GPR139. The text has this: DMR assays provide a single integrated readout of ligand-dependent cellular response, utilizing an optical biosensor in specialized microplates to detect wavelength shifts of reflected light as it passes through the biosensor and the lower portion of the cell (∼150-200 nm). As a signal pathway agnostic approach, DMR assays are well-suited to the study of GPCRs ([Fang et al., 2008], [Schröder et al., 2011]). The mass redistribution response (Δ picometer (pm)) likely reflects a number of intracellular events, including cytoskeletal rearrangement, protein trafficking and receptor internalization. Orphan receptor-expressing cells were gently washed twice with assay buffer (HBSS with 1 mM CaCl2, 1 mM MgCl2, 20 mM HEPES, 0.01% pluronic F-68, pH 7.4) containing 0.1% DMSO and cells were equilibrated for 90 min at 22°C in the EPIC Benchtop (BT) System (Corning) to establish a stable DMR signal. After 3-5 min baseline recordings, peptides (10 μM) were added in duplicate wells using an electronic 384-channel Viaflo pipette (Integra Biosciences, Switzerland) and DMR responses were measured for 60 min at 22°C. 100 nM norepinephrine was included as an internal assay control to assess the cellular DMR response via endogenously-expressed adrenoceptors in the TREx 293 cells. Real-time data were processed using the BT to column converter MS-Excel macro (Corning) and analyzed in GraphPad Prism 7.0. DMR recordings in peptide screening experiments were buffer and solvent corrected and the area under the curve (AUC) was quantified. For subsequent validation experiments, peptides were diluted in assay buffer containing 0.1% DMSO and DMR assays were performed as above. […] Data represent mean ± standard error of the mean (SEM) from at least 3 biologically independent experiments.
A TR-FRET real-time internalization assay was used to examine peptide-dependent changes in orphan receptor localization as described previously ([Foster and Bräuner-Osborne, 2018]). Surface-expressed SNAP-tagged receptors were labeled with a cell-impermeable luminescent terbium cryptate (100 nM SNAP Lumi4-Tb; Cisbio, France) for 1 hr at 37°C. Cells were washed to remove excess terbium and incubated with fluorescein-O-acetic acid (100 μM; Sigma Aldrich) for 5 min at 37°C. Peptides were added as for DMR assays, and internalization responses were recorded for 60 min at 37°C using an EnVision 2104 Multimode plate reader (PerkinElmer). 100 nM GLP-1 was used as a positive control for SNAP-GLP1R internalization. Real-time internalization responses were calculated based on TR-FRET (excitation 340 nm; emission 520 nm and 615 nm), and were expressed as the ratio between donor (terbium) and acceptor (fluorescein) emission. For peptide screening analysis (both DMR and internalization assays), we calculated the area under the curve from the real-time traces. […] Validation experiments for receptor internalization were performed as above. Internalization data was processed in MS-Excel and area under the curve was used to generate concentration-response curves using GraphPad Prism 7.0. Data represent mean ± standard error of the mean (SEM) from at least 3 biologically independent experiments.

Assay [2] deals with T1, GPR139. Nature of the assay: IP1 accumulation. The assay is classed as cell-based. The note with it: mean, SEM and n. The text has this:
Supplement mmc7.xlsx, sheet "Peptide validation data" | column: Emax; pEC50

For assay [3], the target named is T1, GPR139. Nature of the assay: β-arrestin recruitment (Tango), validation. The assay is classed as cell-based. From the text: (§1) Supplement mmc7.xlsx, sheet "Peptide validation data" | column: Comment
Assay [4] concerns the target T2, GPR55 (Homo sapiens, UniProt Q9Y2T6). Nature of the assay: Dynamic mass redistribution (DMR), concentration-response. The assay is classed as cell-based. The note with it: GPR55, data from single experiment (n = 1). Also noted: hIL-2Ra signal peptide (N); expressed in transfected cells. The essentials: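 Doxycycline-induced (0.1 μg/ml) SNAP-tagged receptors in TREx 293 cells, equilibrated 90 min at 22°C in HEPES-buffered HBSS, pH 7.4, with 0.1% DMSO. Peptide-evoked optical wavelength shift recorded for 60 min at 22°C, buffer/solvent corrected and quantified as area under the curve. Mean ± SEM of at least 3 independent experiments.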

Assay [5] concerns the target T2, GPR55. Put plainly: Real-time receptor internalization (TR-FRET), concentration-response. The assay is classed as cell-based. On the set-up: hIL-2Ra signal peptide (N); expressed in transfected cells. The note with it: GPR55, data from single experiment (n = 1). The method in brief: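 Doxycycline-induced (0.1 μg/ml) SNAP-tagged receptor cells had surface receptors labeled with 100 nM Lumi4-Tb for 1 h at 37°C, then 100 μM fluorescein-O-acetic acid for 5 min. Peptide-induced internalization was recorded by TR-FRET for 60 min at 37°C as donor/acceptor emission ratio. Area under the curve gave concentration-response curves; mean ± SEM, ≥3 independent experiments.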
A general note: TR-FRET usually uses a lanthanide donor and a delayed reading to cut background.

Assay [6] deals with T2, GPR55. Nature of the assay: β-arrestin recruitment (Tango). The assay is classed as cell-based. On the set-up: hIL-2Ra signal peptide (N); expressed in transfected cells. Background: Activated receptors often draw arrestin, which recruitment assays turn into a signal.
Assay [7] deals with T3, GPR15 (Homo sapiens, UniProt P49685).
T3 construct: hIL-2Ra signal peptide (N); expressed in transfected cells
T3 sequence (P49685 2-360 limits assumed): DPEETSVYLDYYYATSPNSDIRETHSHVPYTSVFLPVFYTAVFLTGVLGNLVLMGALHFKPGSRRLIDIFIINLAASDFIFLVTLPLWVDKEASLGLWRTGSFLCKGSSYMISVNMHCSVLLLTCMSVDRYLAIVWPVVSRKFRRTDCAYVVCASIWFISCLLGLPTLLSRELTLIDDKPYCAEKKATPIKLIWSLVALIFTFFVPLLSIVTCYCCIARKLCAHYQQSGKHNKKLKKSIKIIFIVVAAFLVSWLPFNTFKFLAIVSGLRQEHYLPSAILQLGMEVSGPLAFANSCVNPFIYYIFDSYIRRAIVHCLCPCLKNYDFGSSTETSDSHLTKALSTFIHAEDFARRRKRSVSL
Nature of the assay: cAMP inhibition (Gi/o), HTRF with forskolin. In kind it is cell-based. The settings on record: GPR15L cleavage variants versus peptide 64; Figure 5, Table S7.

The test system of assay [8] is GPR15. Nature of the assay: Repeat of proposed literature pairing. The assay is classed as cell-based, human. The text has this: Supplement mmc7.xlsx, sheet "Hit summary and classification" | column: Priority orphans
The test system of assay [9] is GPR15. Put plainly: Repeat of proposed literature pairing (mass redistribution and/or internalization). The assay is classed as cell-based, human. The settings on record: target GPR15; reported ligand tested on receptor-expressing cell line.
Assay [10] concerns the target T4, GPR176 (Homo sapiens, UniProt Q14439).
T4 construct: host or cells: HTLA cells (HEK293-derived)
T4 sequence (Q14439 1-515): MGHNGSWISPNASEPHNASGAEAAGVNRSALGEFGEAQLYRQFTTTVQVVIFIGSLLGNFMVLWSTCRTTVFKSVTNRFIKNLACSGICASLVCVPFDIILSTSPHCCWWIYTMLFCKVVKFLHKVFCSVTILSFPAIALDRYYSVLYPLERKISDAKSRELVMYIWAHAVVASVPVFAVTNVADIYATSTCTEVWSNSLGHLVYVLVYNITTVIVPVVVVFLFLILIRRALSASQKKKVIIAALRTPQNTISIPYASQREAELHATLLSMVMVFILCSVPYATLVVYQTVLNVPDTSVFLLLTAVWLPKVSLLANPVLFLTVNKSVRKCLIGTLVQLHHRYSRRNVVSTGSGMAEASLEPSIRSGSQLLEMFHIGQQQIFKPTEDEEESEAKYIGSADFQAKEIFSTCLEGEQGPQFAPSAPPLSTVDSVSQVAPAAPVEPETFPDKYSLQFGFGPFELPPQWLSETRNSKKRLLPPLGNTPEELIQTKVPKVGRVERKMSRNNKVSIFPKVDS
Put plainly: Dynamic mass redistribution (DMR), validation. The assay is classed as cell-based.
Text: as §1

Assay [11] concerns the target T4, GPR176. Nature of the assay: Real-time receptor internalization, validation. In kind it is cell-based.
Text: as §1

Assay [12] concerns the target T4, GPR176. Nature of the assay: β-arrestin recruitment (Tango), indicative pairing. In kind it is cell-based. The settings on record: mean, n = 3.
Assay [13] concerns 120 GPCR targets, including all available orphan receptors and 27 known class A peptide receptors. Put plainly: Peptide library screen, β-arrestin recruitment (Tango, fold change, 10 μM). The settings on record: Tango; receptor(s) at which the known library peptide was active, among its known GPCR target(s); validated pairings. The assay is classed as cell-based, human. The method in brief: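 HTLA cells (HEK293 with tTA-dependent luciferase and β-arrestin2-TEV) transiently transfected with Tango GPCR constructs, then stimulated overnight with 10 μM peptides in 1% dFBS medium. Luciferase luminescence read after 15–20 min Bright-Glo incubation at room temperature.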

The target in assay [14] is T4, GPR176. Nature of the assay: Dynamic mass redistribution (DMR, AUC), peptide validation. The assay is classed as cell-based. The note with it: Emax and pEC50 n.d., n = 2.
Text: as §1

Assay [15] deals with T4, GPR176. Nature of the assay: Real-time receptor internalization (AUC), peptide validation. The assay is classed as cell-based. The settings on record: Emax and pEC50 n.d., n = 2.
Text: as §1

T2 sequence (Q9Y2T6 2-319 limits assumed): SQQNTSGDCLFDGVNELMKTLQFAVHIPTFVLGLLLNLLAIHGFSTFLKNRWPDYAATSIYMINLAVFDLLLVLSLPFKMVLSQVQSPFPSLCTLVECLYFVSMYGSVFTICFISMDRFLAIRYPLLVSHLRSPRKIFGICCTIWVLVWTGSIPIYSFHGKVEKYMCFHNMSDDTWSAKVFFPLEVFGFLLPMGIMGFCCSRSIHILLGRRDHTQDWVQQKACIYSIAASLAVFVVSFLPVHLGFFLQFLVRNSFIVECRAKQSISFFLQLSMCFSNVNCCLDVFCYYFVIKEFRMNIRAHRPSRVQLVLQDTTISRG

Consider `CSCC[C@H](NC(=O)[C@H](CO)NC(=O)[C@H](Cc1ccc(O)cc1)NC(=O)[C@@H](N)CO)C(=O)N[C@@H](CCC(=O)O)C(=O)N[C@@H](Cc1c[nH]cn1)C(=O)N[C@@H](Cc1ccccc1)C(=O)N[C@@H](CCCNC(=N)N)C(=O)N[C@@H](Cc1c[nH]c2ccccc12)C(=O)NCC(=O)N[C@@H](CCCCN)C(=O)N1CCC[C@H]1C(=O)N[C@H](C(N)=O)C(C)C` [Alpha-MSH (des-acetyl MSH)], for which the “Emax, Internalization (AUC)” value on GPR139 [1] (data from single experiment (n = 1)) worked out at 2.9. Also, the “Emax, DMR (peak)” value on GPR139 [1] (mean, SEM and n) came to 39.5. Also, the EC50 was 36.3 nM on GPR139 [1] (mean, SEM and n, read-out: pEC50, DMR (peak) (converted)); 10 µM on GPR139 [2] (read-out: pEC50, IP1 (converted)). At GPR139 [2], the “Emax, IP1” value was found to be 60.8 nM. Moreover, on GPR139 [3], the “Comment on response, Tango (fold over basal); Emax and pEC50 n.d.” value is recorded as “No response”.
For `CC[C@H](C)[C@H](NC(=O)[C@@H](NC(=O)[C@H](Cc1c[nH]c2ccccc12)NC(=O)[C@H](CCC(=O)O)NC(=O)[C@H](CO)NC(=O)[C@@H](NC(=O)[C@H](CO)NC(=O)[C@@H]1CSSC[C@H](NC(=O)[C@H](CC(=O)O)NC(=O)[C@@H](N)CCC(=O)O)C(=O)N[C@@H](CCCCN)C(=O)N[C@@H](Cc2ccc(O)cc2)C(=O)N[C@@H]([C@@H](C)CC)C(=O)N[C@@H](C(C)C)C(=O)N[C@@H](C(C)C)C(=O)N[C@@H](CCC(=O)O)C(=O)N[C@@H](CCCCN)C(=O)N[C@@H](CCCCN)C(=O)N[C@@H](CC(=O)O)C(=O)N2CCC[C@H]2C(=O)N[C@@H](CCCCN)C(=O)N[C@@H](CCCCN)C(=O)N[C@@H]([C@@H](C)O)C(=O)N1)C(C)C)[C@@H](C)CC)C(=O)O` [MSMB (91-114)] (H-EDCKYIVVEKKDPKKTCSVSEWII-OH; disulfide 3-17; N-terminus and C-terminus assumed), on GPR55 [4], the “Emax, DMR (AUC)” value came to 169875.0. The EC50 at GPR55 [4] (read-out: pEC50, DMR (AUC) (converted)) is 224 nM; on GPR55 [5] (read-out: pEC50, Internalization (AUC) (converted)), 2690 nM. The “Emax, Internalization (AUC)” value on GPR55 [5] was 37.6. Besides, at GPR55 [6], the “Comment on response, Tango (fold over basal); Emax and pEC50 n.d.” value is “No response”.
For “GPR15L: longest 57-residue cleavage variant of C10orf99 with two intramolecular disulfide bridges (KRRPAKAWSGRRTRLCCHRVPSPNSTNLKGHHVRLCKPCKLEPEPRLWVVPGALPQV; disulfide (positions not given here))”, the “fold improved potency over the 11-amino acid peptide at GPR15” value with GPR15 [7] came out at 100 fold. In the assay on GPR15 [8], the “Peptide pairing for orphan receptor GPR15 (confirmed/unconfirmed)” value is reported as “Confirmed peptide pairings for orphans”. Further, the “Active in DMR/internalization” value in the assay with GPR15 [9] is recorded as “Yes”.
Regarding RSVNPYLQ [SCG5 (181-188)], on GPR176 [10], the “Comment on response, DMR (AUC); Emax and pEC50 n.d.” value is given as “No response”. Further, at GPR176 [11], the “Comment on response, Internalization (AUC); Emax and pEC50 n.d.” value is given as “No response”.
As for “SYSMEHFRWGKPVGKKRRPVKVYPNGAEDESAEAFPLEF [Peptide 208]”, at GPR176 [12], the “Emax, Tango (fold over basal)” value was 8.0 fold over basal and the “pEC50, Tango (fold over basal)” value is listed as 5.06. Also, in assay [13], the “Active at: (activity in b-arrestin recruitment assays)” value was “MC4R”. For the same molecule, the “Comment, DMR (AUC)” value at GPR176 [14] is on record as “No response”. Also, the “Comment, Internalization (AUC)” value on GPR176 [15] is reported as “No response”.
